Data on eight compounds can be found in patent US8258309B2, “Azapeptide derivatives” (priority 2007, dated 2012).

The nature of data set [1]: Microsomal assay: stability in human liver microsomes. The format is in vitro ADME. As to conditions: for half-life as compared to atazanavir: human liver microsomes, first run; for half-life at 1 μM: liver microsomes. How it is done: Microsomal Assay. Human liver microsomes (20 mg/mL, pool of 50 individuals) were obtained from Xenotech LLC (Lenexa, Kans.). The incubation mixtures are prepared as follows. Stock solutions (10 mM) solutions of test Compounds 103, 106, 122 and of atazanavir were prepared in DMSO. The 10 mM stock solutions were diluted to 1 mM in acetonitrile (ACN). […] The microsome-test compound mixtures were added to wells of a 2 mL 96-well deep well polypropylene plate in triplicate. The plate was warmed to 37° C. before initiating the reactions by addition of prewarmed NADPH in 0.1 M potassium phosphate buffer, pH 7.4, containing 3 mM MgCl2. The final reaction mixture composition contained: • Liver Microsomes 0.5 mg/mL • NADPH 2 mM • Potassium Phosphate, pH 7.4 100 mM • Magnesium Chloride 3 mM • Test Compound 1.0 μM. The reaction mixtures were incubated at 37° C. and 50 μL aliquots were removed at 0, 3, 7, 12, 20, and 30 minutes and added to shallow-well 96-well plates which contained 50 μL of ice-cold ACN with internal standard to stop the reactions. The plates were stored at −20° C. for 30 minutes, after which 100 μL of water was added to the wells of the plate before centrifugation to pellet precipitated proteins. Supernatants were transferred to another 96-well plate and analyzed for amounts of parent remaining by LC-MS/MS using an Applied Biosystems API 4000 mass spectrometer. […] Data analysis was performed using Microsoft Excel Software. […] The results are shown in FIGS. 2 and 3 and in Table 3, below: […]
For orientation: Microsomes from liver hold many membrane-bound enzymes, among them those of drug oxidation.

Another data set deals with HIV-1RF. As to the kind of experiment: HIV anti-viral activity in CEM-SS cells infected with HIV-1 (XTT). The class given is cell-based. How it is done: The HIV antiviral activity of compound of the present invention was tested in CEM-SS cells infected with HIV-1. CEM-SS cells were passaged in T-75 flasks in RPMI 1640 medium supplemented with 10% heat inactivated fetal bovine serum, 2 mmol/L L-glutamine, 100 U/mL penicillin and 100 flg/mL streptomycin prior to use in the antiviral assay. On the day preceding the assay, the cells were split 1:2 to assure they were in an exponential growth phase at the time of infection. Total cell and viability quantification was performed using a hemocytometer and Trypan Blue dye exclusion. Cell viability was greater than 95% for the cells to be utilized in the assay. The cells were resuspended at 5×10^4 cells per mL in tissue culture medium and added to the drug-containing microtiter plates in a volume of 50 μL.
The virus used for the assay was the lymphocyte-tropic virus strain HIV-IRF. The virus was obtained from the NIH AIDS Research and Reference Reagent Program and stock virus pools were produced in CEM-SS cells. A pre-titered aliquot of virus was removed from the freezer (−80° C.) and allowed to thaw slowly to room temperature in a biological safety cabinet. Virus was resuspended and diluted into tissue culture medium such that the amount of virus added to each well in a volume of 50 μL was the amount determined to yield 85 to 95% cell killing at 6 days post-infection.
Each plate contains cell control wells (cells only), virus control wells (cells plus virus), compound toxicity wells (cells plus compound only), compound colorimetric control wells (compound only) as well as experimental wells (compound plus cells plus virus). Samples were tested in triplicate with eleven half-log dilutions per compound starting at 0.1 μM of compound. Compounds 104, 120 and 122 were tested, as was atazanavir and AZT. […]
Following incubation at 37° C. in a 5% CO2 incubator, the test plates were stained with the tetrazolium dye XTT (2,3-bis(2-methoxy-4-nitro-5sulfophenyl)-5-[(phenylamino)carbonyl]-2H-tetrazolium hydroxide). XTT-tetrazolium was metabolized by the mitochondrial enzymes of metabolically active cells to a soluble formazan product, allowing rapid quantitative analysis of the inhibition of HIV induced cell killing by anti-HIV test substances. XTT solution was prepared daily as a stock of 1 mg/mL in RPMI 1640. Phenazine methosulfate (PMS) solution was prepared at 0.15 mg/mL in PBS and stored in the dark at −20° C. XTT/PMS stock was prepared immediately before use by adding 40 μL of PMS per mL of XTT solution. Fifty microliters of XTT/PMS was added to each well of the plate and the plate was reincubated for 4 hours at 37° C. Plates were sealed with adhesive plate sealers and shaken gently or inverted several times to mix the soluble formazan product and the plate was read spectrophotometrically at 450/650 nm with a Molecular Devices Vmax plate reader.
Raw data was collected from the Softmax Pro 4.6 software and imported into a Microsoft Excel 2003 spreadsheet for analysis by linear curve fit calculations.
In general terms: Tetrazolium assays rely on reduction of a dye to a coloured formazan, in cell work by metabolically active cells.

Where [2] appears, read: No Serum Protein Added (cell culture medium).
Where [3] appears, read: human, pH 7.4, human liver microsomes 0.5 mg/mL, 1.0 μM test compound, first run (Table 2), read-out: T1/2 ± SD.
Where [4] appears, read: human, pH 7.4, human liver microsomes, repeated assay (Table 3), read-out: t1/2 (min) Avg ± SD (n = 3).

Like-named read-outs stand apart in the source and are kept apart here.

One may read the EC50 as the concentration needed to bring the measured effect to its halfway point. As for “1,14-Dimethyl(3S,8S,9S,12S)-3-(1,1-dimethylethyl)-12-[(1,1-dimethylethyl)-d9]-8-hydroxy-4,11-dioxo-9-(phenylmethyl)-6-[[4-(2-pyridinyl)phenyl]methyl]-2,5,6,10,13-pentaazatetradecanedioate [Compound 104]”, in data set [1] (human, microsomes), the “t1/2 (min) Avg ± SD (n = 3)” value is listed as 23.3 ± 0.4 min. The “fold increase of EC50 in the presence of AAGP” value in the data set with HIV-1RF (0.5 mg/mL AAGP versus cell culture medium) is “greater than 7 fold”. For the same compound, the “fold less potent in the presence of HSA than in cell culture medium alone” value in the data set with HIV-1RF (10 mg/mL HSA versus cell culture medium) was “two- to greater than three-fold less potent”. Further, the EC50 in the data set on HIV-1RF (+0.5 mg/mL AAGP) was 2 nM; with HIV-1RF (+10 mg/mL HAS), 0.9 nM; in the data set on HIV-1RF (+AAGP + HSA) it was 4 nM; in the data set on HIV-1RF (setting [2]) it was < 0.3 nM. The “fold decrease of antiviral activity in the presence of AAGP plus HSA” value in the data set with HIV-1RF (AAGP plus HSA versus cell culture medium) was “greater than 13 fold”.
On to `Cc1cn([C@H]2C[C@H](N=[N+]=[N-])[C@@H](CO)O2)c(=O)[nH]c1=O` [AZT, reference compound], for which the EC50 was 1 nM with HIV-1RF (+0.5 mg/mL AAGP), 2 nM in the data set on HIV-1RF (+10 mg/mL HAS), 2 nM with HIV-1RF (+AAGP + HSA) and 2 nM with HIV-1RF (setting [2]).
For the compound `[2H]C([2H])([2H])OC(=O)N[C@H](C(=O)N[C@@H](Cc1ccccc1)[C@@H](O)CN(Cc1ccc(-c2ccccn2)cc1)NC(=O)[C@@H](NC(=O)OC([2H])([2H])[2H])C(C)(C)C)C(C)(C)C` [Compound 103, 1,14-Di(methyl-d3)(3S,8S,9S,12S)-3,12-bis(1,1-dimethylethyl)-8-hydroxy-4,11-dioxo-9-(phenylmethyl)-6-[[4-(2-pyridinyl)phenyl]methyl]-2,5,6,10,13-pentaazatetradecanedioate], the “half-life as compared to atazanavir” value in data set [1] is “increased half-life”. For the same compound, in data set [1] (human, 1 μM, pH 7.4), the “% change in t1/2” value was −9%. The results for the half-life at 1 μM in data set [1] (setting [3]) and in data set [1] (setting [4]) were 20.2 ± 4.22 min and 17.2 ± 0.9 min, respectively.
As to `[2H]C([2H])([2H])C([C@H](NC(=O)OC)C(=O)N[C@@H](Cc1ccccc1)[C@@H](O)CN(Cc1ccc(-c2ccccn2)cc1)NC(=O)[C@@H](NC(=O)OC)C(C([2H])([2H])[2H])(C([2H])([2H])[2H])C([2H])([2H])[2H])(C([2H])([2H])[2H])C([2H])([2H])[2H]` [Compound 106, 1,14-Dimethyl(3S,8S,9S,12S)-3,12-bis[(1,1-dimethylethyl)-d9]-8-hydroxy-4,11-dioxo-9-(phenylmethyl)-6-[[4-(2-pyridinyl)phenyl]methyl]-2,5,6,10,13-pentaazatetradecanedioate], the “half-life as compared to atazanavir” value in data set [1] is on record as “increased half-life”. Besides, the “increase in half-life as compared to atazanavir” value in data set [1] (human, 1 μM, pH 7.4) is “approximately 40%”. The half-life at 1 μM in data set [1] (setting [3]) amounted to 26.1 ± 0.99 min; in data set [1] (setting [4]), 25.6 ± 0.6 min.
In the case of `[2H]C([2H])(c1ccc(-c2ccccn2)cc1)N(C[C@H](O)[C@H](Cc1ccccc1)NC(=O)[C@@H](NC(=O)OC)C(C([2H])([2H])[2H])(C([2H])([2H])[2H])C([2H])([2H])[2H])NC(=O)[C@@H](NC(=O)OC)C(C)(C)C` [Compound 111, 1,14-Dimethyl(3S,8S,9S,12S)-3-(1,1-dimethylethyl)-12-[(1,1-dimethylethyl)-d9]-8-hydroxy-4,11-dioxo-9-(phenylmethyl)-6-[[4-(2-pyridinyl)phenyl]methyl-d2]2,5,6,10,13-pentaazatetradecanedioate], the half-life at 1 μM in data set [1] (setting [4]) is 23.9 ± 0.3 min.
`[2H]C([2H])([2H])OC(=O)N[C@H](C(=O)N[C@@H](Cc1ccccc1)[C@@H](O)CN(Cc1ccc(-c2ccccn2)cc1)NC(=O)[C@@H](NC(=O)OC([2H])([2H])[2H])C(C([2H])([2H])[2H])(C([2H])([2H])[2H])C([2H])([2H])[2H])C(C)(C)C` [Compound 121, 1,14-Di(methyl-d3)(3S,8S,9S,12S)-3-[(1,1-dimethylethyl)-d9]-12-(1,1-dimethylethyl)-8-hydroxy-4,11-dioxo-9-(phenylmethyl)-6-[[4-(2-pyridinyl)phenyl]methyl]-2,5,6,10,13-pentaazatetradecanedioate]: the half-life at 1 μM in data set [1] (setting [4]) is 18.8 ± 1.5 min.
As to `[2H]C([2H])([2H])OC(=O)N[C@H](C(=O)N[C@@H](Cc1ccccc1)[C@@H](O)CN(NC(=O)[C@@H](NC(=O)OC)C(C)(C)C)C([2H])([2H])c1ccc(-c2ccccn2)cc1)C(C([2H])([2H])[2H])(C([2H])([2H])[2H])C([2H])([2H])[2H]` [Compound 123, 1-Methyl-14-(methyl-d3)(3S,8S,9S,12S)-3-(1,1-dimethylethyl)-12-[(1,1-dimethylethyl)-d9]-8-hydroxy-4,11-dioxo-9-(phenylmethyl)-6-[[4-(2-pyridinyl)phenyl]methyl-2]-2,5,6,10,13-pentaazatetradecanedioate], the half-life at 1 μM in data set [1] (setting [4]) was determined as 23.9 ± 0.8 min.
Turning to `[2H]C([2H])([2H])OC(=O)N[C@H](C(=O)N[C@@H](Cc1ccccc1)[C@@H](O)CN(NC(=O)[C@@H](NC(=O)OC([2H])([2H])[2H])C(C([2H])([2H])[2H])(C([2H])([2H])[2H])C([2H])([2H])[2H])C([2H])([2H])c1ccc(-c2ccccn2)cc1)C(C([2H])([2H])[2H])(C([2H])([2H])[2H])C([2H])([2H])[2H]` [Compound 131, 1,14-Di(methyl-d3)(3S,8S,9S,12S)-3,12-bis[(1,1-dimethylethyl)-d9]-8-hydroxy-4,11-dioxo-9-(phenylmethyl)-6-[[4-(2-pyridinyl)phenyl]methyl-d2]-2,5,6,10,13-pentaazatetradecanedioate], in data set [1] (setting [4]), the half-life at 1 μM was determined as 30.9 ± 1.4 min.
